Results from PubChem BioAssay (NCI).
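All cell lines were grown in 96-well plates and treated with compound for 48 hours. Here, GI50 denotes the concentration required for 50% inhibition of growth. TGI: total growth inhibition.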

Assays:
Assay in all cases: growth of human tumour cells (NCI), 48 h
RPMI-8226 leukemia = tested on: RPMI-8226 leukemia
HOP-62 NSCLC = tested on: HOP-62 NSCLC
SNB-19 CNS = tested on: SNB-19 CNS
TK-10 renal = tested on: TK-10 renal
SW-620 colon = tested on: SW-620 colon
SF-268 CNS = tested on: SF-268 CNS
ACHN renal = tested on: ACHN renal
EKVX NSCLC = tested on: EKVX NSCLC
A549 NSCLC = tested on: A549 NSCLC
MCF7 breast = tested on: MCF7 breast
OVCAR-8 ovarian = tested on: OVCAR-8 ovarian
HOP-92 NSCLC = tested on: HOP-92 NSCLC
SK-MEL-5 melanoma = tested on: SK-MEL-5 melanoma
KM12 colon = tested on: KM12 colon
SNB-75 CNS = tested on: SNB-75 CNS
RXF 393 renal = tested on: RXF 393 renal
786-0 renal = tested on: 786-0 renal
PC-3 prostate = tested on: PC-3 prostate
HCT-15 colon = tested on: HCT-15 colon
NCI-H23 lung = tested on: NCI-H23 lung
HS 578T breast = tested on: HS 578T breast
IGROV1 ovarian = tested on: IGROV1 ovarian
OVCAR-5 ovarian = tested on: OVCAR-5 ovarian
NCI/ADR-RES ovarian = tested on: NCI/ADR-RES ovarian
MDA-MB-231 breast = tested on: MDA-MB-231 breast
CCRF-CEM leukemia = tested on: CCRF-CEM leukemia
MDA-MB-435 = tested on: MDA-MB-435
NCI-H522 lung = tested on: NCI-H522 lung
K-562 leukemia = tested on: K-562 leukemia
COLO 205 colon = tested on: COLO 205 colon
M14 melanoma = tested on: M14 melanoma
HT29 colon = tested on: HT29 colon
UACC-257 melanoma = tested on: UACC-257 melanoma
T-47D breast = tested on: T-47D breast
UACC-62 melanoma = tested on: UACC-62 melanoma
SK-MEL-28 melanoma = tested on: SK-MEL-28 melanoma
SK-MEL-2 melanoma = tested on: SK-MEL-2 melanoma
A498 renal = tested on: A498 renal
MOLT-4 leukemia = tested on: MOLT-4 leukemia
SR leukemia = tested on: SR leukemia
MALME-3M melanoma = tested on: MALME-3M melanoma
HL-60(TB) leukemia = tested on: HL-60(TB) leukemia
SF-539 CNS = tested on: SF-539 CNS
OVCAR-4 ovarian = tested on: OVCAR-4 ovarian
HCC-2998 colon = tested on: HCC-2998 colon
DU-145 prostate = tested on: DU-145 prostate
LOX IMVI melanoma = tested on: LOX IMVI melanoma
UO-31 renal = tested on: UO-31 renal
NCI-H226 lung = tested on: NCI-H226 lung
HCT-116 colon = tested on: HCT-116 colon
U251 CNS = tested on: U251 CNS
SK-OV-3 ovarian = tested on: SK-OV-3 ovarian
CAKI-1 renal = tested on: CAKI-1 renal
BT-549 breast = tested on: BT-549 breast
NCI-H460 lung = tested on: NCI-H460 lung
SN12C renal = tested on: SN12C renal
SF-295 CNS = tested on: SF-295 CNS

O=C(O)c1ccc(-n2c(=O)n(-c3cccc(C(F)(F)F)c3)c(=O)c3cc(-c4ccc(F)cc4F)ccc32)cc1
GI50 (RPMI-8226 leukemia): 1.7 µM
TGI (RPMI-8226 leukemia): 7.05 µM
GI50 (HOP-62 NSCLC): 2.04 µM
TGI (HOP-62 NSCLC): 4.66 µM
GI50 (SNB-19 CNS): 2.03 µM
TGI (SNB-19 CNS): 31.1 µM
GI50 (TK-10 renal): 3.86 µM
TGI (TK-10 renal): 8.4 µM
GI50 (SW-620 colon): 2.03 µM
TGI (SW-620 colon): 4.96 µM
GI50 (SF-268 CNS): 2.37 µM
TGI (SF-268 CNS): 15 µM
GI50 (ACHN renal): 2.67 µM
TGI (ACHN renal): 10.6 µM
GI50 (EKVX NSCLC): 2.53 µM
TGI (EKVX NSCLC): 8.53 µM
GI50 (A549 NSCLC): 2.96 µM
TGI (A549 NSCLC): 13.5 µM
GI50 (MCF7 breast): 2 µM
TGI (MCF7 breast): 9.29 µM
GI50 (OVCAR-8 ovarian): 2.03 µM
TGI (OVCAR-8 ovarian): 8.43 µM
GI50 (HOP-92 NSCLC): 0.525 µM
TGI (HOP-92 NSCLC): 3.54 µM
GI50 (SK-MEL-5 melanoma): 0.49 µM
TGI (SK-MEL-5 melanoma): 1.88 µM
GI50 (KM12 colon): 2.59 µM
TGI (KM12 colon): 7.49 µM
GI50 (SNB-75 CNS): 1.93 µM
TGI (SNB-75 CNS): 7.02 µM
GI50 (RXF 393 renal): 1.48 µM
TGI (RXF 393 renal): 3.47 µM
GI50 (786-0 renal): 1.83 µM
TGI (786-0 renal): 3.63 µM
GI50 (PC-3 prostate): 2.86 µM
TGI (PC-3 prostate): 8.76 µM
GI50 (HCT-15 colon): 1.04 µM
TGI (HCT-15 colon): 3 µM
GI50 (NCI-H23 lung): 1.56 µM
TGI (NCI-H23 lung): 5.88 µM
GI50 (HS 578T breast): 2.12 µM
TGI (HS 578T breast): 6.98 µM
GI50 (IGROV1 ovarian): 2.91 µM
TGI (IGROV1 ovarian): 20.5 µM
GI50 (OVCAR-5 ovarian): 3.61 µM
TGI (OVCAR-5 ovarian): 28.5 µM
GI50 (NCI/ADR-RES ovarian): 2.63 µM
TGI (NCI/ADR-RES ovarian): 15.2 µM
GI50 (MDA-MB-231 breast): 2.18 µM
TGI (MDA-MB-231 breast): 6.71 µM
GI50 (CCRF-CEM leukemia): 3.32 µM
TGI (CCRF-CEM leukemia): 20.9 µM
GI50 (MDA-MB-435): 2.31 µM
TGI (MDA-MB-435): 7.62 µM
GI50 (NCI-H522 lung): 0.576 µM
TGI (NCI-H522 lung): 3.98 µM
GI50 (K-562 leukemia): 0.335 µM
TGI (K-562 leukemia): 7.74 µM
GI50 (COLO 205 colon): 2.85 µM
TGI (COLO 205 colon): 7.41 µM
GI50 (M14 melanoma): 1.58 µM
TGI (M14 melanoma): 3.72 µM
GI50 (HT29 colon): 3.58 µM
TGI (HT29 colon): 13.7 µM
GI50 (UACC-257 melanoma): 1.6 µM
TGI (UACC-257 melanoma): 4.96 µM
GI50 (T-47D breast): 1.79 µM
TGI (T-47D breast): 6.21 µM
GI50 (UACC-62 melanoma): 0.582 µM
TGI (UACC-62 melanoma): 2.51 µM
GI50 (SK-MEL-28 melanoma): 1.85 µM
TGI (SK-MEL-28 melanoma): 6.79 µM
GI50 (SK-MEL-2 melanoma): 1.04 µM
TGI (SK-MEL-2 melanoma): 2.91 µM
GI50 (A498 renal): 0.524 µM
TGI (A498 renal): 1.87 µM
GI50 (MOLT-4 leukemia): 1.44 µM
TGI (MOLT-4 leukemia): 6.16 µM
GI50 (SR leukemia): 0.555 µM
TGI (SR leukemia): 4.07 µM
GI50 (MALME-3M melanoma): 1.78 µM
TGI (MALME-3M melanoma): 5.42 µM
GI50 (HL-60(TB) leukemia): 0.323 µM
TGI (HL-60(TB) leukemia): 11.1 µM
GI50 (SF-539 CNS): 2.2 µM
TGI (SF-539 CNS): 8.17 µM
GI50 (OVCAR-4 ovarian): 2.82 µM
TGI (OVCAR-4 ovarian): 35 µM
GI50 (HCC-2998 colon): 3.03 µM
TGI (HCC-2998 colon): 9.71 µM
GI50 (DU-145 prostate): 3.37 µM
TGI (DU-145 prostate): 14.2 µM
GI50 (LOX IMVI melanoma): 1.73 µM
TGI (LOX IMVI melanoma): 3.53 µM
GI50 (UO-31 renal): 2.54 µM
TGI (UO-31 renal): 9.57 µM
GI50 (NCI-H226 lung): 1.72 µM
TGI (NCI-H226 lung): 4.8 µM
GI50 (HCT-116 colon): 1.1 µM
TGI (HCT-116 colon): 2.39 µM
GI50 (U251 CNS): 2.06 µM
TGI (U251 CNS): 10.7 µM
GI50 (SK-OV-3 ovarian): 1.45 µM
TGI (SK-OV-3 ovarian): 4.12 µM
GI50 (CAKI-1 renal): 2.11 µM
TGI (CAKI-1 renal): 6.96 µM
GI50 (BT-549 breast): 1.54 µM
TGI (BT-549 breast): 3.11 µM
GI50 (NCI-H460 lung): 1.58 µM
TGI (NCI-H460 lung): 8.21 µM
GI50 (SN12C renal): 1.91 µM
TGI (SN12C renal): 8.29 µM
GI50 (SF-295 CNS): 1.82 µM
TGI (SF-295 CNS): 3.82 µM
